Test results reported in patent publication US11534457B2, “Use of dextran sulfate” (priority 2017, dated 2022).
Entries after “also recorded” stand apart in the source; their conditions may differ.

Legend:
[1] = system: LPS system [PBMC and HUVEC+LPS (TLR4 ligand)]; test: BioMAP LPS system; format: cell-based, Human
From the text: (§1) In this study LMW-DS was characterized by profiling in the BioMAP® Diversity PLUS panel. The BioMAP® panel consists of human primary cell-based systems designed to model different aspects of the human body in an in vitro format. The 12 systems in the BioMAP® Diversity PLUS panel (Table 32) allow test agent characterization in an unbiased way across a broad set of systems modeling various human disease states. The BioMA®P systems are constructed with one or more primary cell types from healthy human donors, with stimuli, such as cytokines or growth factors, added to capture relevant signaling networks that naturally occur in human tissue or pathological conditions. […]
(§2) Systems are derived from either single cell types or co-culture systems. […] Test agents prepared in either DMSO (small molecules; final concentration 0.1%) or PBS (biologics) are added at the indicated concentrations 1-hr before stimulation, and remain in culture for 24-hrs or as otherwise indicated (48-hrs, MyoF system; 72-hrs, BT system (soluble readouts); 168-hrs, BT system (secreted IgG)). […] Soluble factors from supernatants are quantified using either HTRF® detection, bead-based multiplex immunoassay or capture ELISA. Overt adverse effects of test agents on cell proliferation and viability (cytotoxicity) are detected by sulforhodamine B (SRB) staining, for adherent cells, and alamarBlue® reduction for cells in suspension. […]

human Schwann cells = test: PI staining (DNA content, cell cycle, cell numbers, apoptotic fraction), Acumen cytometry; format: cell-based; conditions: 0.01 and 0.1 mg/ml
Protocol: (§3) The study aims were to evaluate the effect of LMW-DS on cell survival and expression of differentiation proteins in three cell types, cerebral cortical neurons, motor neurons and Schwann cells, using two concentrations 0.01 and 0.1 mg/ml of LMW-DS.
(§4) Neurons were cultured as 40,000 cells per well and Schwann cells 3,000 cells per. Cells were treated after 24 hours. The number of cells per well depended on the growth phenotype, proliferative capacity, etc.
Schwann cells growth medium was prepared by adding 10% of fetal bovine serum (FBS, PAA) to high-glucose DMEM and pre-warmed to 37° C. Cells were thawed in a 37° C. water bath for no longer than 2 min. […] Pellet was resuspended in 5 ml of medium and cells were counted with the Cellometer. […]
LMW-DS was prepared in the culture media of choice for each cell line and added to the respective wells in the doses 0.01 and 0.1 mg/ml. For cell survival assays cells were analyzed after 24 and 48 hours in eight identical wells/dose/time point. Differentiation and protein expression assay was analyzed after 48 hours, also in octuplicates. […]
(§5) The Acumen cytometer allows the direct cytometric analysis of attached cells without prior detachment. […] The protein content of the cells can also be directly measured and expressed as either ‘total protein content’ or ‘mean protein content’.

human motor neurons = test: as above; format: cell-based; conditions: 0.01 and 0.1 mg/ml
Protocol: as §3, §4
NeuroBlast was pre-warmed to 37° C. Cells were thawed in a 37° C. water bath for no longer than 2 min. 1 ml of media was gently added drop-wise. Cells were resuspended and transferred to a 15 ml tube containing 9 ml of medium. Cells were centrifuged at 200 relative centrifugal force (RCF) for 5 min. Pellet was resuspended in 5 ml of medium and cells were counted with the Cellometer. 40,000 cells per well were seeded in previously coated 96-well plates. Cells were incubated at 37° C. with 5% CO2. Cells were allowed to settle for 24 hours before drug treatment. After 24 hours NeuroBlast medium was replaced with MotorBlast medium (Lonzo).
LMW-DS was prepared in the culture media of choice for each cell line and added to the respective wells in the doses 0.01 and 0.1 mg/ml. For cell survival assays cells were analyzed after 24 and 48 hours in eight identical wells/dose/time point. Differentiation and protein expression assay was analyzed after 48 hours, also in octuplicates.
Cells were fixated in the wells. Propidium iodine was used for viability assay. For immunohistochemical analysis, neurons were stained with βIII-tubulin, which is a tubulin specific for neurons. Schwann cells were stained for Myelin Basic Protein (MBP). For the negative controls PBST (0.1% Triton-X-100 in PBS) was applied instead of primary antibodies.
as §5

[2] = system: HDF3CGF system [HDFn+(IL-1β, TNFα, IFNγ, EGF, bFGF and PDGF-BB)]; test: BioMAP HDF3CGF system; format: cell-based, Human
From the text: as §1, with “conditions. Vascular biology is modeled in both a Th1 (3C system) and a Th2 (4H system) inflammatory environment, as well as in a Th1 inflammatory state specific to arterial smooth muscle cells (CASM3C system).” for “conditions.”
as §2, with “suspension. For proliferation assays, individual cell types are cultured at subconfluence and measured at time points optimized for each system (48-hrs: 3C and CASM3C systems; 72-hrs: BT and HDF3CGF systems; 96-hrs: SAg system).” for “suspension.”

low molecular weight dextran sulfate [LMW-DS]
Decreased biomarker activity [1]: sTNFα
Increased biomarker activity [1]: IL-8
fraction of apoptotic cells (human Schwann cells): reduced
number of cells in the G2/M phase (PI content) (human Schwann cells): appeared to increase the number of cells in the G2/M phase
cell loss in cultures (human motor neurons): major cell loss
number of cells in the G2/M phase (PI content) (human motor neurons): appeared to increase the number of cells in the G2/M phase
proliferation within a population of very small cells (human motor neurons): small increase in proliferation
Decreased biomarker activity ([2]; HDF3CGF system): VCAM-1, IP-10,; also recorded: ITAC, MIG, M-CSF
Increased biomarker activity ([2]; HDF3CGF system): EGFR, MMP-1,; also recorded: PAI-1
key inflammation biomarkers including MIG, VCAM, IP-10 and ITAC ([2]; all tested concentrations): decreased over all tested concentrations
